In the METLIN SMRT retention time set (Domingo-Almenara et al. 2019):

Test: gradient 5% acetonitrile 3 min, to 50% in 2 min, to 85% in 15 min, held 3 min, 100 µL/min
Conditions: column: Zorbax Extend-C18 2.1 x 50 mm; eluents: water / acetonitrile, 0.1% formic acid
Summary of the method: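 Retention time was recorded from adduct peaks, which were picked computationally and each inspected manually. Pure standards ran in mixtures of ~100 molecules on HPLC coupled to a quadrupole time-of-flight mass spectrometer, in positive and negative ionization mode, through a Zorbax Extend-C18 column (2.1 × 50 mm, 1.8 μm) at 100 μL/min. Eluents were water and acetonitrile, each with 0.1% formic acid.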

RP-LC retention time | Compound
710 s | CCC(C)NC(=O)C1c2cc(OC)c(OC)cc2C(=O)N(C)C1c1ccc(OC)c(OC)c1 (centres undefined)
1050 s | Cc1oc2ncnc(N3CCCC(C(=O)Nc4cccc(Cl)c4)C3)c2c1C (centres undefined)
1020 s | COc1cc(-c2noc(CN3C(=O)COc4cc(Cl)ccc43)n2)cc(OC)c1OC
1030 s | CCn1ccc2ccc(CCC(=O)N3CCN(c4ccccc4)CC3)cc21
874 s | CCN1C(=O)c2cccnc2Sc2cc(NC(=O)c3ccc(F)c(F)c3)ccc21
856 s | Cc1ccccc1Oc1nccn2c(=O)n(CC(=O)Nc3ccccc3)nc12
594 s | COc1ccc(-c2[nH]ncc2CN2CC(F)(F)C[C@H]2CN2CCOCC2)cc1OC
1000 s | CCN1C(=O)C2(CCN(S(=O)(=O)c3cc(Cl)ccc3OC)CC2)c2ccccc21
740 s | CCOC(=O)c1c(S(=O)(=O)N2CCC(C(=O)Nc3nccs3)CC2)c(C)n(C)c1C
1110 s | CCn1nnc(NCc2ccc(-c3cc(Cl)ccc3Cl)o2)n1
1050 s | O=c1c2oc3ccccc3c2ncn1Cc1nc(-c2ccc(OC(F)(F)F)cc2)no1
571 s | O=C(NCC1CCCO1)c1coc(NC(=O)C2CC2)n1 (centres undefined)
668 s | O=C(CCNC(=O)Cn1cnc2ccccc2c1=O)NCCc1c[nH]c2ccccc12
995 s | Cc1nc(-c2ccccc2)cc2nn(CC(=O)Nc3ccccc3Br)c(=O)n12
627 s | CNC(=O)C1CCCN(c2nc3ncn(CC(=O)Nc4ccc5c(c4)OCCO5)c(=O)c3s2)C1 (centres undefined)
750 s | COc1ccc(C2(C)NC(=O)N(CC(=O)N3CCc4ccccc43)C2=O)cc1 (centres undefined)
868 s | Cc1nc(-c2ccccc2)oc1CC(=O)N1CCCCCC1
1140 s | Cc1[nH]nc(-c2c(C)sc(C)c2S(=O)(=O)Nc2ccc(F)c(Cl)c2)c1C
817 s | COc1ccc2[nH]cc(CCNC(=O)Cn3nc(C)c4nn(-c5ccccc5)c(C)c4c3=O)c2c1
718 s | CCCNC(=O)C1CCCN(c2ccc(SCC(=O)Nc3ccc(C)c(F)c3)nn2)C1 (centres undefined)
646 s | CC(C)CN1CCN(C(=O)c2cnc(-c3ccccc3)nc2-c2ccncc2)CC1
742 s | CCOC(=O)c1cnc2nc(C)ccc2c1Nc1ccc(F)cc1Cl
644 s | C=CCn1c(=O)c2cnc(Nc3ccc(N4CCN(C)CC4)cc3)nc2n1-c1cccc(C(C)(C)O)n1

RP-LC retention time | Compound
996 s | Cc1ccc(Sc2nccnc2N2CCCC(C(=O)NC(C)C)C2)cc1 (centres undefined)
721 s | COc1cccc(CC(=O)NC(CC(C)C)C(=O)Nc2nc3ccccc3[nH]2)c1 (centres undefined)
667 s | Cc1ccc(NC(=O)N(C)CC2CCOC2)cc1 (centres undefined)
736 s | O=C1NC2(CCN(C(=O)Nc3ccc4c(c3)OCCO4)CC2)Oc2ccccc21
577 s | O=C(NC1CC1)C1CCCN(C(=O)c2cc(-c3ccccn3)n[nH]2)C1 (centres undefined)
830 s | COC(=O)c1cc2c(=O)n(-c3ccccc3Cl)ccc2nc1C
923 s | Cc1ccccc1-c1noc(Cn2ccn(-c3c(C)cccc3C)c(=O)c2=O)n1
589 s | O=C(NCCCn1ncccc1=O)c1coc(NC(=O)c2cccs2)n1
987 s | CCOc1cccc2cc(C(=O)Nc3nc(-c4ccccc4)cs3)c(=N)oc12
1050 s | Cc1ccc(NC(=O)Cn2nc3c(Oc4ccc(C(C)C)cc4)nccn3c2=O)c(C)c1
718 s | COCCc1nnc(NC(=O)C2c3ccccc3Oc3ccccc32)o1
856 s | CN(CCc1noc(COc2ccc(F)cc2)n1)C(=O)Nc1ccccc1
982 s | Cc1ccc(N2C(=O)c3ccc(C(=O)N4CCN(c5ccccc5F)CC4)cc3C2=O)cc1
607 s | Cn1nnnc1SCC(=O)Nc1nc2c(s1)C(=O)CCC2
874 s | Cn1c(=O)n(C)c2cc(S(=O)(=O)c3ccc(F)cc3)c(NC(=O)Cc3ccc(F)cc3)cc21
854 s | CCN(CC)S(=O)(=O)N1CCC(C(=O)Nc2ccc3sc(NC(=O)C(C)C)nc3c2)CC1
606 s | Cc1nn2c(-n3ccnc3C)c3c(nc2c1-c1ccccc1)CCC3
796 s | CCN1C(=O)c2cccnc2Sc2cc(NC(=O)c3ccsc3)ccc21
832 s | Cc1cccc(CNC(=O)c2ncn3c2C(=O)N(C2CC2)C(C)(C(=O)NCc2cccc(C)c2)C3)c1 (centres undefined)
867 s | CCS(=O)(=O)c1ccc(C(=O)Nc2nc3c(s2)CC(C)CC3)cc1 (centres undefined)
824 s | CSc1cccc(NC(=O)NC2CCN(c3ccc(F)cc3)C2=O)c1 (centres undefined)
813 s | Cc1cccc(NC(=O)C2CCCN2S(=O)(=O)c2cc3c(cc2C)NC(=O)C(C)O3)c1 (centres undefined)
950 s | Cc1ccc(NC(=O)Cn2nc(C(=O)N3CCCC3)c3ccccc32)cc1Cl

RP-LC retention time | Compound
651 s | O=C(C1CC1)N1CCCC(OCc2nc(-c3cnccn3)no2)C1 (centres undefined)
821 s | Cc1ccc(C(=O)NC2CCN(c3cc(-c4ccc(Cl)cc4)[nH]n3)C2)cc1 (centres undefined)
703 s | CCOc1ccc(-c2nc(CN3CCN(C(=O)NC4CCCC4)CC3)c(C)o2)cc1
709 s | COc1cc2c(cc1CNC(=O)C1CC1)OCCCO2
778 s | CCCc1cc(C2CCCN2C(=O)Nc2ccc(OC)c(OC)c2)no1 (centres undefined)
684 s | CSc1ccc(-c2nc3cnccn3c2Nc2cccc(C(N)=O)c2)cc1
1090 s | Cc1ccccc1-n1c(=O)c2sccc2n(Cc2nc(-c3ccc(Cl)cc3)no2)c1=O
797 s | COc1ccc(Cl)cc1NC(=O)Cc1nnc(-c2ccc3ncccc3c2)o1
656 s | Cc1cccc(-c2nnc(C)c(N3CCCC3)n2)c1
824 s | CCOc1ccc(NC(=O)Cn2c(=O)c(CCC(=O)NCC(C)C)nc3ccccc32)cc1
890 s | Cc1noc(-c2cc(=O)n(CC(=O)Nc3cccc(C)c3C)c3ccccc23)n1
1060 s | COc1ccc(C(O)Cn2ccn3nc(-c4ccc(C(C)C)cc4)cc3c2=O)cc1 (centres undefined)
566 s | COc1ccc(CN2C[C@@H]3C(=O)N(C)C(=O)[C@@H]3C2)cc1OC
627 s | Cc1cc(C)c2[nH]c3c(c(=O)c2c1)CN(CC(=O)Nc1ccccc1)CC3
644 s | Cc1cccc(S(=O)(=O)Nc2cccc(-c3cn4ccccc4n3)c2)c1
1010 s | Cc1[nH]c(-c2ccc(Cl)cc2)cc1C(=O)N1CCC(C)CC1
1130 s | Cc1nc2cc(-c3noc(Cc4c(Cl)cccc4Cl)n3)ccc2o1
735 s | O=C(Nc1cccc(Cl)c1)Nc1ccc2nncn2c1
776 s | CCCNC(=O)N1CCCN(C2=NS(=O)(=O)C(c3ccc(C)cc3)=C2C)CC1
618 s | Cn1c(C(=O)Nc2ccc(N3CCOCC3)cc2)cc2c1CCN(Cc1ccccc1)C2
761 s | O=C(C1CCN(c2cnn(Cc3ccccc3)c(=O)c2)CC1)N1CCCCC1
591 s | CCN(CC)CCNCc1ccc(-c2ccc(Cl)cc2)o1
844 s | CC1=C(c2ccc(F)cc2)S(=O)(=O)N=C1N1CCC(NC(=O)CCC(C)C)CC1

RP-LC retention time | Compound
704 s | O=C(NCc1ccc(Br)cc1)C1CCN(c2cncnc2N2CCCC2)CC1
769 s | O=C(c1c(F)cccc1F)N(CC1CCOC1)C1CC1 (centres undefined)
630 s | O=C(NCc1ccncc1)C1CCCN(c2nc3ccsc3c(=O)n2Cc2ccc(F)cc2)C1 (centres undefined)
702 s | O=C(CCc1ccccc1)Nc1cnn(-c2ncncc2N2CCCC2)c1
636 s | Cc1cnc(NC(=O)c2ccc(N3CCCC3)nn2)s1
910 s | COc1ccc(C2CC(=O)N(c3ccc(OC)c(OC)c3)C(=O)C2)cc1OC
1130 s | O=C(c1nc(-c2cccs2)cs1)N1CCN(c2ccccc2)CC1
627 s | COc1ccc(-c2nc3cccnc3n2C2CCN(C(=O)NCc3ccco3)C2)cc1 (centres undefined)
610 s | O=C(NCCCN1CCOCC1)c1ccc(CS(=O)Cc2cccc(Cl)c2)o1 (centres undefined)
918 s | CCCS(=O)(=O)c1nc2ccc(NS(=O)(=O)c3cccc(F)c3)cc2s1
665 s | Cc1ccc(N2CCN(CC(O)c3ccc4c(c3)OCO4)CC2)cc1 (centres undefined)
911 s | CCn1ccc2sc(C)c(C(=O)NCc3ccc(Br)cc3)c2c1=O
824 s | Cn1c(N2CCC(C(=O)N3CCC(Cc4ccccc4)CC3)CC2)cc(=O)n(C)c1=O
627 s | O=C(NC1CC1)C1CCCN(S(=O)(=O)c2c[nH]c(C(=O)N3CCCC3)c2)C1 (centres undefined)
938 s | Cn1nc(CNC(=O)c2cccc(Cl)c2)c2ccccc21
762 s | CC(=O)N1CCC(C(=O)Nc2cccc(OCc3nnc(-c4ccc(Cl)cc4)o3)c2)CC1
655 s | Cc1ccc2cc(CCC(=O)N3CCN(C(=O)c4ccco4)CC3)c(=O)[nH]c2c1
709 s | CN1CCn2cc(S(=O)(=O)Nc3cccc(Cl)c3)cc2C1=O
1030 s | CN(C)c1cccc(-c2nc(C3CC(=O)N(c4ccc(F)cc4)C3)no2)c1 (centres undefined)
756 s | O=C(NCc1ccco1)Nc1ccc2c(c1)N(C(=O)c1ccccc1)CC2
